Patent US20230416329A1, “A PEPTIDE WITH DISULFIDE BONDS AND INHIBITORY ACTIVITY AGAINST SERINE PROTEASES, DERIVED HYBRID PEPTIDES THEREOF, AND USES THEREOF” (INSTITUTE OF MATERIA MEDICA , CHINESE ACADEMY OF MEDICAL …, priority 2020, published 2023)
Values belong to the compound of their own block, whether it stands above or below them. Bridge positions count the residues as written; N and C are the ends. Square brackets hold non-standard residues; d marks the D form. Peptide text beside a SMILES is read from it. Hyp = O=C(O)[C@@H]1C[C@@H](O)CN1

Experiments:
DPP-IV = DPP-IV (Homo sapiens, UniProt P27487); test: Tolerance of GLP-1 and its analogues to DPP-IV (RP-HPLC remaining peak area); format: in vitro ADME; conditions: peptide 25 μM, DPP-IV 0.5 ng/μL, 37° C.; for Remaining peak area (%)/DPP-IV: 0.0 h; for remaining at 0.5 h, 25 μM / remaining at 2 h, 25 μM / remaining at 4 h, 25 μM / remaining at 8 h, 25 μM / remaining at 12 h, 25 μM: isolated DPP-IV enzyme in buffer, pH 8
Procedure: Mix by centrifugation at 8000 rpm for 30 seconds.
(2) Arrange a certain volume of 0.005 μg/μL DPP-IV solution in another sterile EP.

[1] = Stability of GLP-1 and its analogues in human serum; conditions: 25% (v/v) human serum; for Remaining peak area (%)/human serum: 0.0 h, peptide 0.03 mM, 37° C.; for remaining at 0.5 h, 0.03 mM / remaining at 2 h, 0.03 mM / remaining at 4 h, 0.03 mM / remaining at 8 h, 0.03 mM / remaining at 12 h, 0.03 mM: human, pH 7
chymotrypsin = chymotrypsin (Bos taurus, UniProt P00766); test: in vitro; conditions: isolated enzyme chymotrypsin, pH 7.8, Remaining peak area (%)/chymotrypsin
How it was run: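 Peptide and 0.05 μg/μL chymotrypsin were preincubated at 37 °C for 5 min, then mixed. Aliquots taken from 1.5 up to 60.0 min were quenched with 10% TFA, and remaining peptide was measured as RP-HPLC peak area.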

[2] = target: porcine pancreatic elastase (Sus scrofa, UniProt P00772); test: Elastase inhibitory activity of peptides (AAApNA hydrolysis; IC50, Ki, residual activity); format: biochemical; conditions: for IC50: elastase 0.5 μM, AAApNA 1 mM; for Ki: read-out: Ki
How it was run: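 Porcine pancreatic elastase, 0.5 μM final, was preincubated with peptide for 10 min at 37° C in 20 mM CaCl2, 50 mM Tris-HCl pH 8.0. AAApNA (1 mM final) was then added for 60 min and A405 read. Residual activity gave IC50, converted to Ki via IC50/(1+S/Km) using measured Km.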

Chain of porcine pancreatic elastase (P00772 27-266): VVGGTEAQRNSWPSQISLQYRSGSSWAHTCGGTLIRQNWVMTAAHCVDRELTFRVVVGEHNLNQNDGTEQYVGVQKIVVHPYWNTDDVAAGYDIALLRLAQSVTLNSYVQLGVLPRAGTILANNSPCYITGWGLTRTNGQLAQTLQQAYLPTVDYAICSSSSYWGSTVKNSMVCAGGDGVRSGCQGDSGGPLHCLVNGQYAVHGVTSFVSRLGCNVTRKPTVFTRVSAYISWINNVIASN
Chain of DPP-IV (P27487 whole entry, species assumed): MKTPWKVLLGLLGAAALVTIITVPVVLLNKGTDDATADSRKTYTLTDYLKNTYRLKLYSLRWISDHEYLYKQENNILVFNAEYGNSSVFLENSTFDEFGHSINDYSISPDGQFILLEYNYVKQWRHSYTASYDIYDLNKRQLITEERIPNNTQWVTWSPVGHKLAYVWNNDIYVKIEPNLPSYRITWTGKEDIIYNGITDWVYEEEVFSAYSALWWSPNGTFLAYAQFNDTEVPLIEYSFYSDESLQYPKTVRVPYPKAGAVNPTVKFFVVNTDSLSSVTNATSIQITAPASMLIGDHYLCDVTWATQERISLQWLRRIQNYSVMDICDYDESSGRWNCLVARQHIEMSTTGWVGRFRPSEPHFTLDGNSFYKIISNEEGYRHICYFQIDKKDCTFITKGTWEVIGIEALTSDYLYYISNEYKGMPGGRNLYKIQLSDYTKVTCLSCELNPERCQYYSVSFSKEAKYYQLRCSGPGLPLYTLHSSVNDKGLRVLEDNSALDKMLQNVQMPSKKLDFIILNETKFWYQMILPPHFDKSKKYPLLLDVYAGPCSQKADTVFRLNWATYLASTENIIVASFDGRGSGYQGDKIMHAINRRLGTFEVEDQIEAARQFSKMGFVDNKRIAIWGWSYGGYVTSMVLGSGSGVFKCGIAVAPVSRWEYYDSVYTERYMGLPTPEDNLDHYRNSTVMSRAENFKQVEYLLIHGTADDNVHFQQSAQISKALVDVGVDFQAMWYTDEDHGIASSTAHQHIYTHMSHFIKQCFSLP

Structure (SMILES): CC[C@H](C)[C@@H]1NC(=O)CNC(=O)[C@@H](N)CSSC[C@@H](C(=O)N[C@@H](CCC(N)=O)C(=O)O)NC(=O)[C@H]([C@@H](C)CC)NC(=O)[C@@H]2CCCN2C(=O)[C@@H]2CCCN2C(=O)[C@H]([C@@H](C)CC)NC(=O)[C@H](CO)NC(=O)[C@H](C)NC(=O)[C@H]([C@@H](C)O)NC(=O)[C@H](CCCCN)NC1=O [EC42] (H-CGIKTASIPPICQ-OH; disulfide 1-12)
IC50 [2]: > 50000 nM

Structure (SMILES): CC[C@H](C)[C@@H]1NC(=O)[C@@H]2CCCN2C(=O)[C@@H](N)CSSC[C@@H](C(=O)N[C@@H](CCC(N)=O)C(=O)O)NC(=O)[C@H]([C@@H](C)CC)NC(=O)[C@@H]2CCCN2C(=O)[C@@H]2CCCN2C(=O)[C@H]([C@@H](C)CC)NC(=O)[C@H](CO)NC(=O)[C@H](C)NC(=O)[C@H]([C@@H](C)O)NC(=O)[C@H](C)NC1=O [EC44] (H-CPIATASIPPICQ-OH; disulfide 1-12)
IC50 [2]: > 50000 nM

Structure (SMILES): CC[C@H](C)[C@@H]1NC(=O)[C@@H]2C[C@@H](O)CN2C(=O)[C@@H](N)CSSC[C@@H](C(=O)N[C@@H](CCC(N)=O)C(=O)O)NC(=O)[C@H]([C@@H](C)CC)NC(=O)[C@@H]2CCCN2C(=O)[C@@H]2CCCN2C(=O)[C@H]([C@@H](C)CC)NC(=O)[C@H](CO)NC(=O)[C@H](C)NC(=O)[C@H]([C@@H](C)O)NC(=O)[C@H](C)NC1=O [EC46] (H-C[Hyp]IATASIPPICQ-OH; disulfide 1-12)
IC50 [2]: > 50000 nM

Structure (SMILES): CC[C@H](C)[C@H](N)C(=O)N[C@H]1CSSC[C@@H](C(=O)N[C@@H](CCC(N)=O)C(=O)O)NC(=O)[C@H]([C@@H](C)CC)NC(=O)[C@@H]2CCCN2C(=O)[C@@H]2C[C@@H](O)CN2C(=O)[C@H]([C@@H](C)CC)NC(=O)[C@H](CO)NC(=O)[C@H](C)NC(=O)[C@H]([C@@H](C)O)NC1=O [EC47, Ile-Cys-Thr-Ala-Ser-Ile-Hyp-Pro-Ile-Cys-Gln] (H-ICTASI[Hyp]PICQ-OH; disulfide 2-10; C-terminus assumed)
IC50 [2]: 400 nM | Ki [2]: 110 nM

Structure (SMILES): CC[C@H](C)[C@@H]1NC(=O)[C@H](CO)NC(=O)[C@H](C)NC(=O)[C@H]([C@@H](C)O)NC(=O)[C@@H](NC(=O)[C@H](CC(C)C)NC(=O)CNC(=O)CNC(=O)[C@@H](NC(=O)[C@@H]2CCCN2C(=O)[C@@H]2CCCN2C(=O)[C@@H](NC(=O)[C@H](CC(=O)O)NC(=O)[C@H](C)NC(=O)CNC(=O)[C@@H](N)CCC(N)=O)[C@@H](C)O)C(C)C)CSSC[C@@H](C(=O)N[C@@H](Cc2ccc(O)cc2)C(=O)O)NC(=O)[C@H](CCC(N)=O)NC(=O)[C@@H]2CCCN2C(=O)[C@@H]2CCCN2C1=O [EC49] (H-QGADTPPVGGLCTASIPPQCY-OH; disulfide 12-20; N-terminus and C-terminus assumed)
Ki [2]: 280 nM

The next lines start with results.

Remaining peak area (%)/human serum [1]: 100.0 ± 0.0% | remaining at 0.5 h, 0.03 mM [1]: 72.3 ± 0.5% | remaining at 2 h, 0.03 mM [1]: 34 ± 0.2% | remaining at 4 h, 0.03 mM [1]: 16.6 ± 0.8% | remaining at 8 h, 0.03 mM [1]: 4.4 ± 0.2% | remaining at 12 h, 0.03 mM [1]: 1.8 ± 0.1% | remaining at 0.025 h, 60 μM (chymotrypsin): 84.9 ± 1.6% | remaining at 0.05 h, 60 μM (chymotrypsin): 89.6 ± 4.2% | remaining at 0.075 h, 60 μM (chymotrypsin): 83.6 ± 0.5% | remaining at 0.1 h, 60 μM (chymotrypsin): 86.2 ± 0.7% | remaining at 0.15 h, 60 μM (chymotrypsin): 81.1 ± 4.7% | remaining at 0.25 h, 60 μM (chymotrypsin): 83.3 ± 1.4% | remaining at 0.5 h, 60 μM (chymotrypsin): 84.5 ± 3.7% | remaining at 1 h, 60 μM (chymotrypsin): 78.6 ± 2%
Structure (SMILES): CC[C@H](C)[C@H](NC(=O)[C@H](Cc1ccccc1)NC(=O)[C@H](CCC(=O)O)NC(=O)[C@H](CCCCN)NC(=O)[C@H](C)NC(=O)[C@H](C)NC(=O)[C@H](CCC(N)=O)NC(=O)CNC(=O)[C@H](CCC(=O)O)NC(=O)[C@H](CC(C)C)NC(=O)[C@H](Cc1ccc(O)cc1)NC(=O)[C@H](CO)NC(=O)[C@H](CO)NC(=O)[C@@H](NC(=O)[C@H](CC(=O)O)NC(=O)[C@H](CO)NC(=O)[C@@H](NC(=O)[C@H](Cc1ccccc1)NC(=O)[C@@H](NC(=O)CNC(=O)[C@H](CCC(=O)O)NC(=O)[C@H](C)NC(=O)[C@H](Cc1c[nH]cn1)NC(=O)CNC(=O)CNC(=O)[C@@H](NC(=O)[C@@H]1CCCN1C(=O)[C@@H](NC(=O)CNC(=O)CNC(=O)[C@H](Cc1ccc(O)cc1)NC(=O)[C@@H]1CSSC[C@H](NC(=O)[C@@H](N)CO)C(=O)N[C@@H]([C@@H](C)O)C(=O)N[C@@H](Cc2ccc(O)cc2)C(=O)N[C@@H](CO)C(=O)N[C@@H]([C@@H](C)CC)C(=O)N2CCC[C@H]2C(=O)N2CCC[C@H]2C(=O)N[C@@H](CCC(N)=O)C(=O)N1)[C@@H](C)CC)[C@@H](C)CC)[C@@H](C)O)[C@@H](C)O)C(C)C)C(=O)N[C@@H](C)C(=O)N[C@@H](Cc1c[nH]c2ccccc12)C(=O)N[C@@H](CC(C)C)C(=O)N[C@H](C(=O)N[C@@H](CCCCN)C(=O)NCC(=O)N[C@@H](CCCNC(=N)N)C(=O)NCC(=O)NCC(=O)N[C@@H](CCCCN)C(=O)O)C(C)C [CH4-D-GLP-1]
Remaining peak area (%)/DPP-IV (DPP-IV): 100.0 ± 0.0% | remaining at 0.5 h, 25 μM (DPP-IV): 88.5 ± 0.7% | remaining at 2 h, 25 μM (DPP-IV): 90 ± 0.9% | remaining at 4 h, 25 μM (DPP-IV): 92.4 ± 0.5% | remaining at 8 h, 25 μM (DPP-IV): 85.1 ± 0.9% | remaining at 12 h, 25 μM (DPP-IV): 88.6 ± 3.7%

Remaining peak area (%)/human serum [1]: 100.0 ± 0.0% | remaining at 0.5 h, 0.03 mM [1]: 74.4 ± 5.5% | remaining at 2 h, 0.03 mM [1]: 54.8 ± 2.1% | remaining at 4 h, 0.03 mM [1]: 26.2 ± 2.9% | remaining at 8 h, 0.03 mM [1]: 7.3 ± 1% | remaining at 12 h, 0.03 mM [1]: 0.8% | remaining at 0.025 h, 60 μM (chymotrypsin): 59.7 ± 2.1% | remaining at 0.05 h, 60 μM (chymotrypsin): 59.1 ± 4.5% | remaining at 0.075 h, 60 μM (chymotrypsin): 54.5 ± 1.2% | remaining at 0.1 h, 60 μM (chymotrypsin): 57.3 ± 1.5% | remaining at 0.15 h, 60 μM (chymotrypsin): 56.3 ± 4.7% | remaining at 0.25 h, 60 μM (chymotrypsin): 54 ± 4.7% | remaining at 0.5 h, 60 μM (chymotrypsin): 57.4 ± 4% | remaining at 1 h, 60 μM (chymotrypsin): 59.4 ± 2.1%
Structure (SMILES): CC[C@H](C)[C@H](NC(=O)[C@H](Cc1ccccc1)NC(=O)[C@H](CCC(=O)O)NC(=O)[C@H](CCCCN)NC(=O)[C@H](C)NC(=O)[C@H](C)NC(=O)[C@H](CCC(N)=O)NC(=O)CNC(=O)[C@H](CCC(=O)O)NC(=O)[C@H](CC(C)C)NC(=O)[C@H](Cc1ccc(O)cc1)NC(=O)[C@H](CO)NC(=O)[C@H](CO)NC(=O)[C@@H](NC(=O)[C@H](CC(=O)O)NC(=O)[C@H](CO)NC(=O)[C@@H](NC(=O)[C@H](Cc1ccccc1)NC(=O)[C@@H](NC(=O)CNC(=O)[C@H](CCC(=O)O)NC(=O)[C@H](C)NC(=O)[C@H](Cc1c[nH]cn1)NC(=O)CNC(=O)CNC(=O)[C@@H](NC(=O)[C@@H]1CCCN1C(=O)[C@@H](NC(=O)CNC(=O)CNC(=O)[C@H](Cc1ccc(O)cc1)NC(=O)[C@@H]1CSSC[C@H](NC(=O)[C@@H](N)Cc2ccccc2)C(=O)N[C@@H]([C@@H](C)O)C(=O)N[C@@H](Cc2ccc(O)cc2)C(=O)N[C@@H](CO)C(=O)N[C@@H]([C@@H](C)CC)C(=O)N2CCC[C@H]2C(=O)N2CCC[C@H]2C(=O)N[C@@H](CCC(N)=O)C(=O)N1)[C@@H](C)CC)[C@@H](C)CC)[C@@H](C)O)[C@@H](C)O)C(C)C)C(=O)N[C@@H](C)C(=O)N[C@@H](Cc1c[nH]c2ccccc12)C(=O)N[C@@H](CC(C)C)C(=O)N[C@H](C(=O)N[C@@H](CCCCN)C(=O)NCC(=O)N[C@@H](CCCNC(=N)N)C(=O)NCC(=O)NCC(=O)N[C@@H](CCCCN)C(=O)O)C(C)C [CH10-D-GLP-1]
Remaining peak area (%)/DPP-IV (DPP-IV): 100.0 ± 0.0% | remaining at 0.5 h, 25 μM (DPP-IV): 91.2 ± 3.2% | remaining at 2 h, 25 μM (DPP-IV): 94.1 ± 2.3% | remaining at 4 h, 25 μM (DPP-IV): 86.8 ± 0.8% | remaining at 8 h, 25 μM (DPP-IV): 84.1 ± 6.7% | remaining at 12 h, 25 μM (DPP-IV): 81.8 ± 0.6%

Ki [2]: 280 nM
Structure (SMILES): CC[C@H](C)[C@@H]1NC(=O)[C@H](CO)NC(=O)[C@H](C)NC(=O)[C@H]([C@@H](C)O)NC(=O)[C@@H](NC(=O)[C@H](CC(C)C)NC(=O)CNC(=O)CNC(=O)[C@H](CC(=O)O)NC(=O)[C@H](CCC(=O)O)NC(=O)[C@@H](NC(=O)[C@H](C)NC(=O)[C@H](CC(N)=O)NC(=O)CNC(=O)[C@H](CC(N)=O)NC(=O)[C@@H](N)CO)C(C)C)CSSC[C@@H](C(=O)N[C@@H](Cc2ccc(O)cc2)C(=O)O)NC(=O)[C@H](CCC(N)=O)NC(=O)[C@@H]2CCCN2C(=O)[C@@H]2CCCN2C1=O [EC50] (H-SNGNAVEDGGLCTASIPPQCY-OH; disulfide 12-20; N-terminus and C-terminus assumed)
